Test: Cytotoxicity against human MCF7 cells incubated for 48 hrs by MTT assay
Format: toxicity, cell-based

For `C[C@@H]1CC[C@@]2(OC1)O[C@H]1C[C@H]3[C@@H]4CC[C@H]5C[C@@H](OC(=O)[C@@H](N)CO)CC[C@]5(C)[C@H]4CC[C@]3(C)[C@H]1[C@@H]2C`, the IC50 at 48 h was 1.5 µM.
